Assay results published in publication PMC3151735 (ACS chemical biology, 2011).

What was measured:
Bcl-XL/Bak-BH3 [1] = molecular target: T1, Bcl-XL/Bak-BH3 (Homo sapiens, UniProt Q07817); type: binding
Bcl-XL/Bak-BH3 [2] = molecular target: T1, Bcl-XL/Bak-BH3; conditions: proof-of-concept study; cited from earlier work
[3] = GST-Bcl-XL, fluorescein-labeled Bak-BH3 peptide

T1 sequence (Q07817 whole entry): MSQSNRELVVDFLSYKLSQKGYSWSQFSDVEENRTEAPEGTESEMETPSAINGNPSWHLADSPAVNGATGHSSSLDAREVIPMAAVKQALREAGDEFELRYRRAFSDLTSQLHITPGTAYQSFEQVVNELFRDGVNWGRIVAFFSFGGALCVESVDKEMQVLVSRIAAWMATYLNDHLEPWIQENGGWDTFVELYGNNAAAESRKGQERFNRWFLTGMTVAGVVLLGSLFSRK

Row | Ki (Bcl-XL/Bak-BH3 [1]; [3]) [µM] | Structure (SMILES) | IC50 (Bcl-XL/Bak-BH3 [1]; [3]) [nM] | Percentage Inhibition (Bcl-XL/Bak-BH3 [1]; acylsulfonamide at 50 μM concentration, Bcl-XL/Bak-BH3 PPI disruption) [%] | IC50 inhibitory constants (Bcl-XL/Bak-BH3 [2])
1 | 11.5 ± 1.4 | CC1(C)CCN(c2ccc(C(=O)NS(=O)(=O)c3ccc4ccc(S(=O)(=O)NCCSc5ccccc5)cc4c3)cc2)CC1 [SZ7TA2] |  |  | 
2 | 11.6 ± 1.6 | [N-]=[N+]=NS(=O)(=O)c1ccc(CN(CCSc2ccccc2)Cc2ccc(S(=O)(=O)NC(=O)c3ccccc3)cc2)cc1 [SZ9TA1] |  |  | 
3 | 14.6 ± 1 | COc1cc(OC)cc(C(=O)NS(=O)(=O)c2ccc(CN(CCSc3ccccc3)Cc3ccc(S(=O)(=O)N=[N+]=[N-])cc3)cc2)c1 [SZ9TA5] |  |  | 

Row | Structure (SMILES) | Ki (Bcl-XL/Bak-BH3 [1]; [3]) [µM] | IC50 (Bcl-XL/Bak-BH3 [1]; [3]) [nM] | Percentage Inhibition (Bcl-XL/Bak-BH3 [1]; acylsulfonamide at 50 μM concentration, Bcl-XL/Bak-BH3 PPI disruption) [%] | IC50 inhibitory constants (Bcl-XL/Bak-BH3 [2])
4 | CC1(C)CCN(c2ccc(C(=O)NS(=O)(=O)c3ccc(NCCSc4ccccc4)c([N+](=O)[O-])c3)cc2)CC1 [SZ4TA2] | 0.0375 ± 0.005 | 106 ± 12 | 100 | nM range
